# Assay results taken from paper PMC3934894, “Inhibition of Human and Yeast 20S Proteasome by Analogues of Trypsin Inhibitor SFTI-1” (PLoS ONE, 2014).
# Where “and” joins values, the source holds several entries; their conditions need not be identical. Equal entries are not always repeated. Where two headings read alike, the source gives them in different places. Peptide text beside a SMILES is read from it. * marks the point of attachment. Cbz = O=C(OCc1ccccc1)*
# Legend:
# [1] = target: yeast 20S proteasome, chymotrypsin-like (ChT-L) activity (Saccharomyces cerevisiae, UniProt P30656); assay: ChT-L activity of SDS-activated yeast 20S proteasome (Suc-LLVY-AMC)
# Procedure: (§1) The peptidase activities of 20S proteasome were assayed using fluorogenic tri- and tetra-peptides coupled at their C-termini with 7-amino-4-methylcoumarin group (AMC). The initial concentration of purified yeast 20S proteasome [E0] […] An assay buffer was composed of 50 mM Tris-HCl (pH 8.1) and 0.02% (w/v) SDS (exceptionally, T-L activity was measured in Tris buffer without SDS, that may trigger precipitation of substrates containing the guanidino group [21]). […] The SFTI-1 analogues were incubated with 20S proteasome in assay buffer at 37°C for 30 min. Reactions were performed in 96-well black BRAND plates (Germany). The final volume of the solution in each well was 200 µL. […] Proteasomal subsite activities were determined by monitoring the AMC liberation over time with a Fluorostar Omega (BMG Labtech, Germany) using excitation and emission wavelengths of 380 nm and 450 nm, respectively.
# [2] = target: T1, human 20S proteasome, chymotrypsin-like (ChT-L) activity (Homo sapiens, UniProt P28074); assay: biochemical; conditions: for IC50: ChT-like Human 20S IC50, SDS-activated human 20S, [E] 2.7 nM, pH 8.1, 37°C, Suc-LLVY-AMC 52 µM
# Procedure: (§2) An assay buffer was composed of 50 mM Tris-HCl (pH 8.1) and 0.02% (w/v) SDS (exceptionally, T-L activity was measured in Tris buffer without SDS, that may trigger precipitation of substrates containing the guanidino group [21]). […] The SFTI-1 analogues were incubated with 20S proteasome in assay buffer at 37°C for 30 min. Reactions were performed in 96-well black BRAND plates (Germany). The final volume of the solution in each well was 200 µL. […] Proteasomal subsite activities were determined by monitoring the AMC liberation over time with a Fluorostar Omega (BMG Labtech, Germany) using excitation and emission wavelengths of 380 nm and 450 nm, respectively. […] Association constants Ka were measured as described previously [14] and calculated using a two-parameter fit model (using the GraFit software package).
# [3] = target: human 20S proteasome, trypsin-like (T-L) activity (Homo sapiens, UniProt Q99436); assay: T-L activity of latent human 20S proteasome (Z-LLR-AMC, no SDS); conditions: for IC50: T-like Human 20S IC50, latent human 20S, Tris buffer without SDS, pH 8.1, 37°C, Z-LLR-AMC 52 µM
# Procedure: as §1
# [4] = target: human 20S proteasome, caspase-like (C-L) activity (Homo sapiens, UniProt P28072); assay: C-L activity of SDS-activated human 20S proteasome (Z-LLE-AMC); conditions: for IC50: C-like Human 20S IC50, SDS-activated human 20S, pH 8.1, 37°C, Z-LLE-AMC 79 µM
# Procedure: as §2
# 20S proteasome = system: 20S proteasome; design: method as in PMID 10805568; conditions: ChT-L, T-L and C-L; cited from earlier work
# [5] = system: rat and porcine 20S proteasomes, T-L; design: method as in PMID 19054805; conditions: cited from earlier work
# [6] = target: T1, human 20S proteasome, chymotrypsin-like (ChT-L) activity
# Procedure: as §2
# [7] = system: rat and porcine 20S proteasomes, C-L site; design: method as in PMID 19054805; conditions: cited from earlier work
# [8] = system: rat and porcine 20S proteasomes, ChT-L; design: method as in PMID 19054805; conditions: cited from earlier work
# porcine 20S C–L activity = system: porcine 20S C–L activity; design: method as in PMID 19054805; conditions: cited from earlier work
# [9] = ChT-like Yeast 20S IC50, SDS-activated yeast 20S, [E] 0.9 nM, pH 8.1, 37°C, 30 min incubation, Suc-LLVY-AMC 5.2 µM
molecule,measurement,setting,value
"CC[C@H](C)[C@@H]1NC(=O)[C@@H]2CCCN2C(=O)[C@H](CCCCN)NC(=O)[C@H](CC(C)C)NC(=O)[C@H](CO)NC(=O)[C@H](CCCCN)NC(=O)[C@H]([C@@H](C)O)NC(=O)[C@@H](NC(=O)[C@H](CCCNC(=N)N)NC(=O)CN)CSSC[C@@H](C(=O)N[C@@H](Cc2ccccc2)C(=O)N2CCC[C@H]2C(=O)N[C@@H](CC(=O)O)C(=O)O)NC1=O [Analogue II] (HELM PEPTIDE1{G.R.C.T.K.S.L.K.P.I.C.F.P.D}$PEPTIDE1,PEPTIDE1,3:R3-11:R3$$$V2.0)",IC50,[1]; [9],2150 nM
same,Ki,[2],1230 nM
same,IC50,[2],2660 nM
same,IC50,[3],> 100000 nM
same,IC50,[4],6740 nM
"CC[C@H](C)[C@@H]1NC(=O)[C@@H]2CCCN2C(=O)[C@H](CCCCN)NC(=O)[C@H](CCCCN)NC(=O)[C@H](CO)NC(=O)[C@H](C)NC(=O)[C@H]([C@@H](C)O)NC(=O)[C@@H](NC(=O)[C@H](CCCNC(=N)N)NC(=O)CN)CSSC[C@@H](C(=O)N[C@@H](Cc2ccccc2)C(=O)N2CCC[C@H]2C(=O)N[C@@H](CC(=O)O)C(=O)O)NC1=O [Analogue VIII] (HELM PEPTIDE1{G.R.C.T.A.S.K.K.P.I.C.F.P.D}$PEPTIDE1,PEPTIDE1,3:R3-11:R3$$$V2.0)",IC50,[1],8820 nM
same,Ki,[2],2990 nM
same,IC50,[2],5800 nM
same,IC50,[3],> 100000 nM
same,IC50,[4],5370 nM
"CC[C@H](C)[C@@H]1NC(=O)[C@@H]2CCCN2C(=O)[C@H](CCCCN)NC(=O)[C@H](CCCCN)NC(=O)[C@H](CO)NC(=O)[C@H](CCCCN)NC(=O)[C@H]([C@@H](C)O)NC(=O)[C@@H](NC(=O)[C@H](CCCNC(=N)N)NC(=O)CN)CSSC[C@@H](C(=O)N[C@@H](Cc2ccccc2)C(=O)N2CCC[C@H]2C(=O)N[C@@H](CC(=O)O)C(=O)O)NC1=O [Analogue X] (HELM PEPTIDE1{G.R.C.T.K.S.K.K.P.I.C.F.P.D}$PEPTIDE1,PEPTIDE1,3:R3-11:R3$$$V2.0)",IC50,[1]; [9],~16700 nM and 16700 nM
same,Ki,[2],660 nM
same,IC50,[2],~1280 nM and 1280 nM
same,IC50,[3],86700 nM
same,IC50,[4],1120 nM
C/C=C\NC(=O)[C@H]1NC(=O)[C@H](CC(N)=O)NC(=O)[C@@H](NC(=O)C(=O)[C@H](C)CC)Cc2ccc(O)c(c2)-c2cccc3c2NC(=O)[C@@]3(O)[C@H]1O [TMC-95D],times weaker than TMC-95A,20S proteasome,20–150 times
CC[C@H](C)[C@@H]1NC(=O)[C@@H]2CCCN2C(=O)[C@@H]2CCCN2C(=O)[C@H]([C@@H](C)CC)NC(=O)[C@H](CO)NC(=O)[C@H](CCCCN)NC(=O)[C@H]([C@@H](C)O)NC(=O)[C@@H](NC(=O)[C@H](CCCNC(=N)N)NC(=O)CN)CSSC[C@@H](C(=O)N[C@@H](Cc2ccccc2)C(=O)N2CCC[C@H]2C(=O)N[C@@H](CC(=O)O)C(=O)O)NC1=O [Analogue I],IC50,[1]; [9],52000 nM
same,Ki,[2],27000 nM
same,IC50,[2],51600 nM
same,IC50,[3],> 100000 nM
same,IC50,[4],58200 nM
"CC(C)C[C@@H](C=O)NC(=O)[C@H](CC(C)C)NC(=O)[C@H](CC(C)C)NC(=O)OCc1ccccc1 [Z-LLL-CHO, reference compound] (Cbz-Leu-Leu-Leu-aldehyde)",IC50,[1],260 nM
same,IC50,[5],2300 nM
same,inhibition of ChT-L activity at 4 µM,[6],completely abolished
same,ChT-like Human 20S Ka×10^5,[6]; pH 8.1,65.4
same,IC50,[7],1700 nM
same,IC50,[8],780 nM
same,IC50,[3],48200 nM
same,IC50,[4],5620 nM
"CC[C@H](C)[C@@H]1NC(=O)[C@@H]2CCCN2C(=O)[C@H](CCCCN)NC(=O)[C@H](CCCCN)NC(=O)[C@H](CO)NC(=O)[C@H](CCCNC(=N)N)NC(=O)[C@H]([C@@H](C)O)NC(=O)[C@@H](NC(=O)[C@H](CCCNC(=N)N)NC(=O)CN)CSSC[C@@H](C(=O)N[C@@H](Cc2ccccc2)C(=O)N2CCC[C@H]2C(=O)N[C@@H](CC(=O)O)C(=O)O)NC1=O [Analogue V] (HELM PEPTIDE1{G.R.C.T.R.S.K.K.P.I.C.F.P.D}$PEPTIDE1,PEPTIDE1,3:R3-11:R3$$$V2.0)",IC50,[1],1230 nM
same,Kd,[2],1000 nM
same,Ki,[2],310 nM
same,IC50,[2],900 nM and 940 nM
same,times lower Ka than Z-LLL-CHO,[6]; human 20S ChT-L,about 6.5 times
same,IC50,[3],72200 nM
same,IC50,[4],600 nM and 610 nM
"CC[C@H](C)[C@@H]1NC(=O)[C@@H]2CCCN2C(=O)[C@H](CCCCN)NC(=O)[C@H](CCCCN)NC(=O)[C@H](CO)NC(=O)[C@H](Cc2ccc(O)cc2)NC(=O)[C@H]([C@@H](C)O)NC(=O)[C@@H](NC(=O)[C@H](CCCNC(=N)N)NC(=O)CN)CSSC[C@@H](C(=O)N[C@@H](Cc2ccccc2)C(=O)N2CCC[C@H]2C(=O)N[C@@H](CC(=O)O)C(=O)O)NC1=O [Analogue VI] (HELM PEPTIDE1{G.R.C.T.Y.S.K.K.P.I.C.F.P.D}$PEPTIDE1,PEPTIDE1,3:R3-11:R3$$$V2.0)",IC50,[1],6600 nM
same,Ki,[2],1430 nM
same,IC50,[3],93100 nM
same,IC50,[4],4020 nM
C/C=C\NC(=O)[C@H]1NC(=O)[C@H](CC(N)=O)NC(=O)[C@@H](NC(=O)C(=O)[C@H](C)CC)Cc2ccc(O)c(c2)-c2cccc3c2NC(=O)[C@@]3(O)[C@@H]1O [TMC-95B],reduction of 20S activities compared with TMC-95A,20S proteasome,to the same extent as TMC-95A
"CC[C@H](C)[C@@H]1NC(=O)[C@@H]2CCCN2C(=O)[C@H](CCCCN)NC(=O)[C@H](CCCCN)NC(=O)[C@H](CO)NC(=O)[C@H](Cc2ccccc2)NC(=O)[C@H]([C@@H](C)O)NC(=O)[C@@H](NC(=O)[C@H](CCCNC(=N)N)NC(=O)CN)CSSC[C@@H](C(=O)N[C@@H](Cc2ccccc2)C(=O)N2CCC[C@H]2C(=O)N[C@@H](CC(=O)O)C(=O)O)NC1=O [Analogue VII] (HELM PEPTIDE1{G.R.C.T.F.S.K.K.P.I.C.F.P.D}$PEPTIDE1,PEPTIDE1,3:R3-11:R3$$$V2.0)",IC50,[1],5340 nM
same,Ki,[2],1750 nM
same,IC50,[2],3410 nM
same,IC50,[3],45300 nM
same,IC50,[4],2800 nM
"CC[C@H](C)[C@@H]1NC(=O)[C@@H]2CCCN2C(=O)[C@H]([C@@H](C)CC)NC(=O)[C@H](CCCNC(=N)N)NC(=O)[C@H](CO)NC(=O)[C@H](CCCCN)NC(=O)[C@H]([C@@H](C)O)NC(=O)[C@@H](NC(=O)[C@H](CCCNC(=N)N)NC(=O)CN)CSSC[C@@H](C(=O)N[C@@H](Cc2ccccc2)C(=O)N2CCC[C@H]2C(=O)N[C@@H](CC(=O)O)C(=O)O)NC1=O [Analogue IV] (HELM PEPTIDE1{G.R.C.T.K.S.R.I.P.I.C.F.P.D}$PEPTIDE1,PEPTIDE1,3:R3-11:R3$$$V2.0)",IC50,[1]; [9],5360 nM
same,Ki,[2],1310 nM
same,IC50,[2],2490 nM
same,IC50,[3],60500 nM
same,IC50,[4],2440 nM
"CC[C@H](C)[C@@H]1NC(=O)[C@@H]2CCCN2C(=O)[C@H](CCCCN)NC(=O)[C@H](CC(C)C)NC(=O)[C@H](CO)NC(=O)[C@H](CCCNC(=N)N)NC(=O)[C@H]([C@@H](C)O)NC(=O)[C@@H](NC(=O)[C@H](CCCNC(=N)N)NC(=O)CN)CSSC[C@@H](C(=O)N[C@@H](Cc2ccccc2)C(=O)N2CCC[C@H]2C(=O)N[C@@H](CC(=O)O)C(=O)O)NC1=O [Analogue III] (HELM PEPTIDE1{G.R.C.T.R.S.L.K.P.I.C.F.P.D}$PEPTIDE1,PEPTIDE1,3:R3-11:R3$$$V2.0)",IC50,[1],1070 nM
same,Ki,[2],1760 nM
same,IC50,[2],3360 nM
same,IC50,[3],> 100000 nM
same,IC50,[4],2420 nM
"CC[C@H](C)[C@@H]1NC(=O)[C@@H]2CCCN2C(=O)[C@H](C)NC(=O)[C@H](C)NC(=O)[C@H](CO)NC(=O)[C@H](CCCCN)NC(=O)[C@H]([C@@H](C)O)NC(=O)[C@@H](NC(=O)[C@H](CCCNC(=N)N)NC(=O)CN)CSSC[C@@H](C(=O)N[C@@H](Cc2ccccc2)C(=O)N2CCC[C@H]2C(=O)N[C@@H](CC(=O)O)C(=O)O)NC1=O [Analogue IX] (HELM PEPTIDE1{G.R.C.T.K.S.A.A.P.I.C.F.P.D}$PEPTIDE1,PEPTIDE1,3:R3-11:R3$$$V2.0)",IC50,[1]; [9],> 100000 nM
same,remaining activity at 100 µM,[1]; read-out: ChT-L activity remaining at about 100 µM,≥ 70%
same,IC50,[2],> 100000 nM
same,IC50,[3],62100 nM
same,IC50,[4],> 100000 nM
C/C=C\NC(=O)[C@H]1NC(=O)[C@H](CC(N)=O)NC(=O)[C@@H](NC(=O)C(=O)[C@@H](C)CC)Cc2ccc(O)c(c2)-c2cccc3c2NC(=O)[C@@]3(O)[C@H]1O [TMC-95C],times weaker than TMC-95A,20S proteasome,20–150 times
CC[C@H](C)[C@H](NC(=O)[C@H]([C@@H](C)CC)N(C)C(C)=O)C(=O)N[C@H](C(=O)N[C@@H](CC(C)C)C(=O)[C@@]1(C)CO1)[C@@H](C)O [epoxomicin],IC50,[5],320 nM
same,IC50,[7],3600 nM
same,IC50,[8],140 nM
bovine pancreatic trypsin inhibitor [BPTI],IC50,[5],790 nM
same,inhibition of porcine 20S C–L activity at 2 µM,porcine 20S C–L activity,86%
same,inhibition of ChT-L activity at 4 µM,"[6]; SDS-activated human 20S, 4 µM inhibitor",60%
same,inhibition of the ChT-L site at ten-fold higher concentration,"[6]; SDS-activated human 20S, ten-fold higher than 4 µM, data not shown",80%
same,IC50,[7],530 nM
same,IC50,[8],420 nM
same,Ki,"[8]; competitive, read-out: inhibition constant Ki, ChT-L",2000 nM
same,reduction of T-L activity at around 40 µM,"[3]; latent human 20S, around 40 µM",60%
same,effect on C-L activity at concentrations lower than 1 µM,[4]; SDS-activated human 20S,reduced the C-L activity significantly
same,maximal inhibition of C-L activity,"[4]; SDS-activated human 20S, even at 12 µM, data not shown",≤ 80%
